Experimental findings from patent US7288543B2, “Opioid receptor antagonists” (Eli Lilly and Company, priority 2004, dated 2007) are described below.

What all share (type): biochemical
In assay [1] the target is T1, cloned human mu opioid receptor (Homo sapiens, UniProt P35372).
T1 construct: expressed in transfected cells
The experiment in a line: GTP-γ-S binding assay (SPA), antagonist mode, mu. The note with it: functional antagonist potency; membranes with cloned human mu receptor; agonist DAMGO 1 micromolar; Cheng-Prusoff. On the procedure:
(§1) The functional antagonist potency (Kb) of the sample compounds was determined using the GTPγS binding assay. GTPgS—based functional assays provide an in vitro measure of the activity of opioid agonists and antagonists. Opioid reference compounds or test compound are incubated with membrane homogenate from cells expressing the cloned human mu, kappa or delta opioid receptor and radiolabeled [35S]GTPgS. If the compound activates the opioid receptor, an increase in the binding of radiolabeled GTPgS is observed. […] These tests provide an in vitro measurement of the activity of the compound at human opioid receptors.
(§2) An SPA-based GTP-γ-S assay format was developed based on previous opioid (Emmerson et al., J. Pharm Exp Ther 278,1121,1996; Horng et al., Society for Neuroscience Abstracts, 434.6, 2000) and muscarinic (DeLapp et al., JPET 289, 946, 1999) assay formats. Membranes were resuspended in 20 mM HEPES, 100 mM NaCl, 5 mM MgCl2, 1 mM DTT, and 1 mM EDTA. Fifty (50) […] of GTP-γ-[35S], compound, membrane suspension (20 microgram/well), and wheat germ agglutinin coated SPA beads (1 mg/well) were added to clear bottom 96 well assay plates. GDP ([…]) was added to the membrane solution prior to addition to the assay plates. Plates were sealed and incubated for four hours at room temperature then placed in a refrigerator overnight to allow the beads to settle. Signal stability at 4° C. was determined to be >60 hours. Plates were warmed to room temperature and counted in a Wallac Microbeta scintillation counter. For antagonist assays, specific agonists were added at the following concentrations: (MOR) DAMGO 1 micromolar, (DOR) DPDPE 30 nM, (KOR) U69593 300 nM. Kb's were determined by Cheng-Prusoff equation (see Cheng and Prusoff, Biochem. Pharmacol. 22, 3099, 1973).

Assay [2] concerns the target T2, cloned human kappa opioid receptor (Homo sapiens, UniProt P41145).
T2 construct: expressed in transfected cells
The experiment in a line: GTP-γ-S binding assay (SPA), antagonist mode, kappa. The settings on record: functional antagonist potency; membranes with cloned human kappa receptor; agonist U69593 300 nM; Cheng-Prusoff. The protocol:
as §1, §2
In general terms: Binding of GTPγS marks nucleotide exchange on a G protein.

The target in assay [3] is T3, cloned human delta opioid receptor (Homo sapiens, UniProt P41143).
T3 construct: expressed in transfected cells
T3 sequence (P41143 whole entry): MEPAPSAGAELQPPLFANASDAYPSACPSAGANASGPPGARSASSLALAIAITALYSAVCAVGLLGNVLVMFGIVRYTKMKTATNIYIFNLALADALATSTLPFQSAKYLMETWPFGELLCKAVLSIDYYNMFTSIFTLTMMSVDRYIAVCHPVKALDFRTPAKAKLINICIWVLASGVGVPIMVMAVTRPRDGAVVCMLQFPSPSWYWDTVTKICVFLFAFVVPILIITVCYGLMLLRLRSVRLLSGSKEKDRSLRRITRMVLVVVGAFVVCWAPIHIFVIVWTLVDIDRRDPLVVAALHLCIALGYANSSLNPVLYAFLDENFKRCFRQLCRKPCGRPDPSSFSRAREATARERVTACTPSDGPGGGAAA
The experiment in a line: GTP-γ-S binding assay (SPA), antagonist mode, delta. The settings on record: functional antagonist potency; membranes with cloned human delta receptor; agonist DPDPE 30 nM; Cheng-Prusoff. On the procedure: as §1, §2

The Kb is the affinity of an antagonist, worked out from how it opposes an agonist.

T1 sequence (P35372 whole entry): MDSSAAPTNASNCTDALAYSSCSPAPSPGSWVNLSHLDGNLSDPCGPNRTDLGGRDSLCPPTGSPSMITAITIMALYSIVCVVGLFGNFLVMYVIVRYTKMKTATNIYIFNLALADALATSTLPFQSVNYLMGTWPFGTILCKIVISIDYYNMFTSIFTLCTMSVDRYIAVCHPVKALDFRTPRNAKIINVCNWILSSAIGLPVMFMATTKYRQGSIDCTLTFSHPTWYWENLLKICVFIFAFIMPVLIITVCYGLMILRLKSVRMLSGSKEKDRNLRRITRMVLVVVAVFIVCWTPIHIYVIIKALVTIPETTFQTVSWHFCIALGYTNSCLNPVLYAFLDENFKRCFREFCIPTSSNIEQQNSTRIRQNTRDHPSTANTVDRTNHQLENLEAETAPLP
T2 sequence (P41145 whole entry): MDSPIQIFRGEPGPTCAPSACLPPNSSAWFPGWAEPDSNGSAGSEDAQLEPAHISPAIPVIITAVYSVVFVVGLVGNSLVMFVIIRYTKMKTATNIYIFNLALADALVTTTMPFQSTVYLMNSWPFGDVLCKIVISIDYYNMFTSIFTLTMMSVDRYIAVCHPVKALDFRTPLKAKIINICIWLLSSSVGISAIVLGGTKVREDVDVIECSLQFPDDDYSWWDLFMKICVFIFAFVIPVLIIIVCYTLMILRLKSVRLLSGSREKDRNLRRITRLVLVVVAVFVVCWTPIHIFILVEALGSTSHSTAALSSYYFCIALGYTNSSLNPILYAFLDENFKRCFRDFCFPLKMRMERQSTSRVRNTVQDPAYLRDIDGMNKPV

For `CC(C)CCNCc1ccc2c(c1)CCc1cc(C(N)=O)ccc1O2` [Example 1, 8-[(3-Methyl-butylamino)-methyl]-10,11-dihydro-dibenzo[b,f]oxepine-2-carboxilic acid amide], the Kb stood at 1.2 nM in assay [1], 6.1 nM in assay [2] and 11 nM in assay [3].
`CCCCCNCc1ccc2c(c1)CCc1cc(C(N)=O)ccc1O2` [Example 5, 8-Pentylaminomethyl-10,11-dihydro-dibenzo[b,f]oxepine-2-carboxylic acid amide]: the Kb was found to be 1.7 nM in assay [1] and 4.9 nM in assay [2].
Regarding `CCOCCCNCc1ccc2c(c1)CCc1cc(C(N)=O)ccc1O2` [Example 17, 8-[(3-Ethoxy-propylamino)-methyl]-10,11-dihydro-dibenzo[b,f]oxepine-2-carboxylic acid amide], the values for the Kb in assay [1], in assay [2] and in assay [3] were 2.1 nM, 25.7 nM and 26.7 nM, respectively.
The corresponding values for `NC(=O)c1ccc2c(c1)CCc1cc(CNCCC3CCCC3)ccc1O2` [Example 14, 8-[(2-Cyclopentyl-ethylamino)-methyl]-10,11-dihydro-dibenzo[b,f]oxepine-2-carboxylic acid amide] are 0.6 nM, 8.6 nM and 7 nM.
The corresponding values for `CC(C)CCCNCc1ccc2c(c1)CCc1cc(C(N)=O)ccc1O2` [Example 3, 8-[(4-Methyl-pentylamino)-methyl]-10,11-dihydro-dibenzo[b,f]oxepine-2-carboxylic acid amide] are 0.8 nM, 6.5 nM and 7.4 nM.
For the compound `CC(C)CNCc1ccc2c(c1)CCc1cc(C(N)=O)ccc1O2` [Example 2, 8-(Isobutylamino-methyl)-10,11-dihydro-dibenzo[b,f]oxepine-2-carboxylic acid amide], the figures for the Kb in assay [1] and in assay [2] were 12 nM and 29.8 nM, respectively.
For `NC(=O)c1ccc2c(c1)CCc1cc(CNCCc3cccs3)ccc1O2` [Example 4, 8-[(2-Thiophen-2-yl-ethylamino)-methyl]-10,11-dihydro-dibenzo[b,f]oxepine-2-carboxylic acid amide], the Kb in assay [1] was 0.9 nM; in assay [2], 12.6 nM; in assay [3] it was 7.1 nM.
In the same order, the values of `CCCCCCNCc1ccc2c(c1)CCc1cc(C(N)=O)ccc1O2` [Example 6, 8-Hexylaminomethyl-10,11-dihydro-dibenzo[b,f]oxepine-2-carboxylic acid amide] are 0.7 nM, 4.4 nM and 10.3 nM.
The corresponding values for `CC(C)(C)CCNCc1ccc2c(c1)CCc1cc(C(N)=O)ccc1O2` [Example 13, 8-[(3,3-Dimethyl-butylamino)-methyl]-10,11-dihydro-dibenzo[b,f]oxepine-2-carboxylic acid amide] are 4 nM, 12.1 nM and 14.4 nM.
On to `NC(=O)c1ccc2c(c1)CCc1cc(CNCCC3CCOCC3)ccc1O2` [Example 12, 8-{[2-(Tetrahydro-pyran-4-yl)-ethylamino]-methyl}-10,11-dihydro-dibenzo[b,f]oxepine-2-carboxylic acid amide], for which the Kb in assay [1] was 0.7 nM; in assay [2], 2.2 nM; in assay [3], 2.1 nM.
